Measurements: ChEMBL document CHEMBL1139968, “Cytotoxic effects of C-glycosides in HOS and HeLa cell lines” (2007)

Experiments:
[1] = system: HOS; assay: Antiproliferative activity against human HOS cells by SRB assay; format: functional
[2] = system: HeLa; assay: Antiproliferative activity against human HeLa cells by SRB assay; format: functional

SMILES | GI50 [2] [µM] | GI50 [1] [µM]
CCC[C@@H]1O[C@H](COCc2ccc3ccccc3c2)[C@@H](OCc2ccc3ccccc3c2)[C@H](OCc2ccc3ccccc3c2)[C@H]1OC(C)=O | > 50 | > 50
CC[C@@H]1O[C@H](COCc2ccccc2)[C@@H](OCc2ccccc2)[C@H](OCc2ccccc2)C1=O | > 50 | 4.3
C[C@@H]1O[C@H](COCc2ccccc2)[C@@H](OCc2ccccc2)[C@H](OCc2ccccc2)C1=O | > 50 | > 50
CCCCC[C@@H]1O[C@H](COCc2ccccc2)[C@@H](OCc2ccccc2)[C@H](OCc2ccccc2)C1=O | > 50 | > 50
CC(=O)O[C@@H]1[C@@H](OCc2ccccc2)[C@H](OC(C)=O)[C@@H](COCc2ccccc2)O[C@H]1Cc1ccccc1 | 5.4 | 6.1
O=C1[C@H](Cc2ccccc2)O[C@H](COCc2ccccc2)[C@@H](OCc2ccccc2)[C@@H]1OCc1ccccc1 | > 50 | > 50
CCCCOC[C@H]1O[C@@H](CCC)C(=O)[C@@H](OCCCC)[C@@H]1OCCCC | > 50 | > 50
CCCCCCCCCCCCCCCOC[C@H]1O[C@@H](CCC)[C@H](O)[C@@H](OCCCCCCCCCCCCCCC)[C@@H]1OCCCCCCCCCCCCCCC | > 50 | > 50
c1ccc(COC[C@H]2OCC[C@@H](OCc3ccccc3)[C@@H]2OCc2ccccc2)cc1 | 33.3 | 22.2
CCCCCCCCCCCCCCCOC[C@H]1O[C@H](CCC)[C@H](O)[C@@H](OCCCCCCCCCCCCCCC)[C@@H]1OCCCCCCCCCCCCCCC | 28.7 | 29.9
CCC[C@@H]1O[C@H](COCc2ccc3ccccc3c2)[C@@H](OCc2ccc3ccccc3c2)[C@H](OCc2ccc3ccccc3c2)[C@H]1O | > 50 | > 50
CCC[C@@H]1O[C@H](CO)[C@@H](O)[C@H](O)[C@H]1O | > 50 | > 50
CC(=O)OC[C@H]1O[C@@H](Cc2ccccc2)[C@H](OC(C)=O)[C@@H](OCc2ccccc2)[C@@H]1OC(C)=O | > 50 | > 50
CCC[C@@H]1O[C@H](COCc2ccc(F)cc2)[C@@H](OCc2ccc(F)cc2)[C@H](OCc2ccc(F)cc2)[C@H]1O | 12.3 | 17.2
CCC[C@H]1O[C@H](COCc2ccc(F)cc2)[C@@H](OCc2ccc(F)cc2)[C@H](OCc2ccc(F)cc2)[C@H]1O | 5.6 | > 50
C=CC[C@@H]1O[C@H](COCc2ccccc2)[C@@H](OCc2ccccc2)[C@H](OCc2ccccc2)C1=O | > 50 | 7.6
C=CC[C@@H]1O[C@H](COCc2ccccc2)[C@@H](OCc2ccccc2)[C@H](OCc2ccccc2)[C@H]1OCc1ccccc1 | > 50 | > 50
CCC[C@H]1O[C@H](COCc2ccccc2)[C@@H](OCc2ccccc2)[C@H](OCc2ccccc2)C1=O | > 50 | > 50
c1ccc(COC[C@H]2O[C@@H](Cc3ccccc3)[C@H](OCc3ccccc3)[C@@H](OCc3ccccc3)[C@@H]2OCc2ccccc2)cc1 | > 50 | > 50
CC(C)C[C@@H]1O[C@H](COCc2ccccc2)[C@@H](OCc2ccccc2)[C@H](OCc2ccccc2)C1=O | > 50 | > 50
CCC[C@@H]1O[C@H](COCc2ccccc2)[C@@H](OCc2ccccc2)[C@H](OCc2ccccc2)C1=O | > 50 | > 50
CC(=O)O[C@@H]1[C@@H](OC(C)=O)[C@H](Cc2ccccc2)O[C@H](COCc2ccccc2)[C@H]1OC(C)=O | > 50 | > 50
CCCCOC[C@H]1O[C@@H](CCC)[C@H](O)[C@@H](OCCCC)C1OCCCC (some centres undefined) | > 50 | > 50

Now from value to molecule, other results behind:

GI50 [2] [µM] | SMILES | GI50 [1] [µM]
9.5 | O[C@@H]1[C@@H](OCc2ccccc2)[C@H](OCc2ccccc2)[C@@H](COCc2ccccc2)O[C@H]1CC1CCCCC1 | 4.4
> 50 | C=CC[C@@H]1O[C@H](COCc2ccccc2)[C@@H](OCc2ccccc2)[C@H](OCc2ccccc2)[C@H]1OC(C)=O | 11
> 50 | O[C@@H]1[C@@H](OCc2ccccc2)[C@H](OCc2ccccc2)[C@@H](COCc2ccccc2)O[C@@H]1CC1CCCCC1 | 20.7
> 50 | O[C@@H]1[C@@H](OCc2ccccc2)[C@H](OCc2ccccc2)[C@@H](COCc2ccccc2)O[C@H]1c1ccccc1 | > 50
30.2 | OCC[C@@H]1O[C@H](COCc2ccccc2)[C@@H](OCc2ccccc2)[C@H](OCc2ccccc2)[C@H]1O | 39.7
23.3 | CCC[C@@H]1O[C@H](COCc2ccccc2)[C@@H](OCc2ccccc2)[C@H](OCc2ccccc2)[C@@H]1O | > 50
19.8 | CC[C@@H]1O[C@H](COCc2ccccc2)[C@@H](OCc2ccccc2)[C@H](OCc2ccccc2)[C@H]1O | 34.2
> 50 | c1ccc(COC[C@H]2O[C@@H]3C[C@@H]3[C@@H](OCc3ccccc3)[C@@H]2OCc2ccccc2)cc1 | > 50
> 50 | CC[C@H]1O[C@H](COCc2ccccc2)[C@@H](OCc2ccccc2)[C@H](OCc2ccccc2)[C@H]1O | > 50
> 50 | CC(=O)O[C@@H]1[C@@H](OCc2ccccc2)[C@H](OCc2ccccc2)[C@@H](COCc2ccccc2)O[C@@H]1CC(C)C | > 50
25.8 | OC[C@@H]1O[C@H](COCc2ccccc2)[C@@H](OCc2ccccc2)[C@H](OCc2ccccc2)[C@H]1O | 27.3
> 50 | CC[C@@H]1O[C@H](COCc2ccccc2)[C@@H](OCc2ccccc2)[C@H](OCc2ccccc2)[C@H]1OC(C)=O | > 50
26.2 | C=CC[C@@H]1O[C@H](COCc2ccccc2)[C@@H](OCc2ccccc2)[C@H](OCc2ccccc2)[C@H]1O | 44.1
24.6 | CC(C)C[C@@H]1O[C@H](COCc2ccccc2)[C@@H](OCc2ccccc2)[C@H](OCc2ccccc2)[C@@H]1O | 26.3
18.9 | CCC[C@@H]1O[C@H](COCc2ccccc2)[C@@H](OCc2ccccc2)[C@H](OCc2ccccc2)[C@H]1O | 38.6
38 | OC[C@H]1O[C@@H](Cc2ccccc2)[C@H](O)[C@@H](OCc2ccccc2)[C@@H]1OCc1ccccc1 | 31.6
> 50 | CC(=O)O[C@@H]1[C@@H](OCc2ccccc2)[C@H](OCc2ccccc2)[C@@H](COCc2ccccc2)O[C@H]1C | 8.8
47.9 | O[C@@H]1[C@@H](O)[C@H](Cc2ccccc2)O[C@H](COCc2ccccc2)[C@H]1OCc1ccccc1 | 33.5
> 50 | CC(C)C[C@@H]1O[C@H](COCc2ccccc2)[C@@H](OCc2ccccc2)[C@H](OCc2ccccc2)[C@H]1O | 45.2
17.4 | O[C@@H]1[C@@H](OCc2ccccc2)[C@H](OCc2ccccc2)[C@@H](COCc2ccccc2)O[C@H]1Cc1ccccc1 | 29.2
> 50 | O[C@H]1CO[C@H](COCc2ccccc2)[C@@H](OCc2ccccc2)[C@@H]1OCc1ccccc1 | 37.9
> 50 | c1ccc(COC[C@H]2O[C@H]3C[C@H]3[C@@H](OCc3ccccc3)[C@@H]2OCc2ccccc2)cc1 | > 50
> 50 | ClC1(Cl)[C@@H]2[C@@H](OCc3ccccc3)[C@H](OCc3ccccc3)[C@@H](COCc3ccccc3)O[C@@H]21 | 1.6
> 50 | O[C@@H]1[C@@H](OCc2ccccc2)[C@H](OCc2ccccc2)[C@@H](COCc2ccccc2)O[C@H]1CC1CC1 | > 50
> 50 | CCCC[C@@H]1O[C@H](COCc2ccccc2)[C@@H](OCc2ccccc2)[C@H](OCc2ccccc2)[C@H]1O | 40.1
43.9 | CC(C)C[C@H]1O[C@H](COCc2ccccc2)[C@@H](OCc2ccccc2)[C@H](OCc2ccccc2)[C@H]1O | 44.5
17.4 | CCC[C@H]1O[C@H](COCc2ccccc2)[C@@H](OCc2ccccc2)[C@H](OCc2ccccc2)[C@H]1O | 23.6
> 50 | OCCC[C@@H]1O[C@H](COCc2ccccc2)[C@@H](OCc2ccccc2)[C@H](OCc2ccccc2)[C@H]1O | > 50
> 50 | C[C@@H]1O[C@H](COCc2ccccc2)[C@@H](OCc2ccccc2)[C@H](OCc2ccccc2)[C@H]1O | > 50
